Measured values: patent US8450479B2, “3-substituted-4-oxo-3,4-dihydro-imidazo[5,1-d][1,2,3,5-tetrazine-8-carboxylic acid amides and their use” (Pharminox Limited, priority 2007, dated 2013)
Several values for one entry are separate records, joined by “and”; a condition that tells them apart may be missing. Equal entries are not always repeated. Where two headings read alike, the source gives them in different places.

Columns and labels:
Type in all cases: cell-based
[1] = test system: range of other cell lines (e.g., colon, melanoma); test: MTT assay, other cell lines; details: for activity in words: other lines (e.g., colon, melanoma)
Source text: This assay was first described in Mosmann, T., 1983, “Rapid colorimetric assay for cellular growth and survival: Application to proliferation and cytotoxicity assays”, Journal of Immunological Methods, Vol. 65, Nos. 1-2, pp. 55-63.
Glioma cell lines, SNB19 and U373, both MGMT transfected (i.e., SNB19M and U373M) and vector controls (i.e., SNB19V and U373V); colorectal carcinoma cell lines, HCT116, HT29, and DLD1; melanoma cell line, SKMEL-28; breast cell line, MCF-7; and normal human fetal lung fibroblast cell line, MRC-5; were harvested at 60-80% confluence—during the logarithmic phase of growth.
Following harvesting, cells in suspension were gently syringed through a 23 gauge needle to obtain a near-single cell suspension. The desired cell seeding densities were used and added into 96-well plates in 180 μL culture medium if only one test compound was to be added, or 160 μL if two test compounds were to be added in combination, which were allowed to attach at 37° C. (5% CO2) overnight. For the 7 day assay, the cell seeding density for different cell lines was as follows: SNB19V, SNB19M: 650 cells/well; U373V, U373M: 650 cells/well; SNB19VR, U373VR: 650 cells/well; HCT116, DLD-1, SKMEL-28, MRC-5, MCF-7: 400 cells/well.
The two peripheral lanes were used as blank wells (cell free) and filled with 200 μL of medium in order to minimise medium evaporation from the plate. A separate time zero (T0) plate was set up alongside other plates. Serial dilutions in tissue culture medium of a 100 mM stock of test compound in DMSO were prepared immediately before each assay to ten times the final concentrations required, and then 20 μL was added to each well (200 μL total media per well) to achieve final concentrations of 0.5 μM, 1 μM, 5 μM, 10 μM, 50 μM, 100 μM, 500 μM, and 1000 μM. A minimum of four wells received the same test compound concentration. To control wells, including those in the T0 plate, 20 μL of medium was added. Previous assays had been carried out to verify that cell viability was not affected by the amount of DMSO added into the test compound-treated wells. A separate plate treated in the same way, but free of test compound, was used as a measure of cell viability at the time of drug addition (day 0).
After incubation at 37° C., 5% CO2 for 7 days (or immediately for the day 0 plate), cell viability was quantified using the MTT assay. 50 μL of sterile filtered MIT (3-(4,5-dimethylthiazol-2-yl)-2,5-diphenyltetrazolium bromide) (2 mg/mL in phosphate buffered saline) were added to each well (final concentration 0.4 mg/mL) and the plates were re-incubated for 4 hours to allow metabolic conversion of MTT by dehydrogenases in viable cells to insoluble formazan crystals. The medium and any unconverted MTT was aspirated, 150 μL of DMSO was added to each well, and the plates were shaken on a plate shaker (Stuart Scientific 503) to ensure complete formazan solubilisation.
The intensity of absorbance is directly proportional to cell viability. A linear relationship exists between cell number and the amount of formazan and so the mean absorbance determined for each well of the same concentration can be used as a quantitative measure of viable cells compared to the controls. A graph of absorbance against drug concentration was plotted and the test compound concentration (GI50) causing 50% inhibition of control cell growth (absorbance increase from day 0) was calculated by interpolation.

[2] = test system: Glioma SNB19M (MGMT+); test: MTT assay for 7-day toxicity assay
Method in brief: (§1)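 MGMT-transfected or vector-control glioma cells were seeded at 650 cells/well, attached overnight, and exposed for 7 days at 37 °C to compound at final 0.5–1000 μM. Viability was read by MTT (0.4 mg/mL, 4 h) formazan absorbance, with a day-0 plate included.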

[3] = test system: Glioma U373M (MGMT+); test: MTT assay for 7-day toxicity assay
Method in brief: as §1

[4] = test system: Glioma U373V (MGMT low); test: MTT assay for 7-day toxicity assay
Method in brief: as §1

[5] = test system: Glioma SNB19V (MGMT−); test: MTT assay for 7-day toxicity assay
Method in brief: as §1

[6] = 168 h, Glioma SNB19M (MGMT+), 7-day MTT, single determinations, read-out: GI50
[7] = Glioma SNB19M (MGMT+), 7-day MTT, single determinations, read-out: GI50
[8] = 168 h, Glioma U373M (MGMT+), 7-day MTT, single determinations, read-out: GI50
[9] = Glioma U373M (MGMT+), 7-day MTT, single determinations, read-out: GI50
[10] = Glioma U373V (MGMT low), read-out: GI50
[11] = Glioma SNB19M (MGMT+), read-out: GI50
[12] = Glioma U373M (MGMT+), read-out: GI50
[13] = Glioma SNB19V (MGMT−), read-out: GI50
[14] = Glioma SNB19V (MGMT−), 7-day MTT, single determinations
[15] = 168 h, Glioma SNB19M (MGMT+), 7-day MTT, single determinations

C#CCn1nnc2c(C(N)=O)ncn2c1=O [EE-001, 3-Propargyl-8-carbamoylimidazotetrazin-4-one]
activity in words [1]: more potent than TMZ | GI50 [2, 6]: 26.9 µM | GI50 [2, 7]: 30.6 µM and 41.6 µM and 52.1 µM | GI50 [3, 8]: 45.1 µM | GI50 [3, 9]: 42.8 µM and 24.6 µM and 31.7 µM

COCn1nnc2c(C(N)=O)ncn2c1=O [PX-020]
GI50 [4, 10]: 21.3 µM and 22 µM and 30.2 µM and 30.4 µM | GI50 [2, 11]: 28.7 µM and 26.6 µM and 43.4 µM | GI50 [3, 12]: 26.5 µM and 39.6 µM

C[Si](C)(C)CCOCn1nnc2c(C(N)=O)ncn2c1=O [PX-021]
GI50 [5, 13]: 36 µM and 26.9 µM and 26.8 µM | GI50 [4, 10]: 28.2 µM and 22.3 µM and 25.5 µM | GI50 [2, 11]: 26.7 µM and 29.1 µM | GI50 [3, 12]: 27.2 µM and 23.6 µM and 21.9 µM

C[C@H](c1ccccc1)n1nnc2c(C(N)=O)ncn2c1=O [BB-001, (R)-3-(-1-Phenylethyl)-8-carbamoylimidazotetrazin-4-one]
GI50 ([5]; 168 h, Glioma SNB19V (MGMT−), 7-day MTT, single determinations): 33.6 µM | GI50 [5, 14]: 31.8 µM | GI50 ([4]; 168 h, Glioma U373V (MGMT low), 7-day MTT, single determinations): 49 µM | GI50 ([4]; Glioma U373V (MGMT low), 7-day MTT, single determinations): 71.3 µM | GI50 [2, 15]: 46.1 µM | GI50 ([2]; Glioma SNB19M (MGMT+), 7-day MTT, single determinations): 53.4 µM | GI50 ([3]; 168 h, Glioma U373M (MGMT+), 7-day MTT, single determinations): 67.1 µM | GI50 ([3]; Glioma U373M (MGMT+), 7-day MTT, single determinations): 79.6 µM

NC(=O)c1ncn2c(=O)n(CCl)nnc12 [PX-030]
GI50 [5, 13]: 44.6 µM and 24.6 µM | GI50 [4, 10]: 34.8 µM and 23.8 µM | GI50 [2, 11]: 36.6 µM and 25.4 µM | GI50 [3, 12]: 23.7 µM and 25.1 µM

CCOC(=O)Cn1nnc2c(C(N)=O)ncn2c1=O [PX-016]
GI50 ([5]; 168 h, Glioma SNB19V (MGMT−), 7-day MTT, single determinations, read-out: GI50): 55.2 µM | GI50 ([5]; Glioma SNB19V (MGMT−), 7-day MTT, single determinations, read-out: GI50): 48.7 µM and 57.3 µM and 48.4 µM | GI50 ([4]; 168 h, Glioma U373V (MGMT low), 7-day MTT, single determinations, read-out: GI50): 49.9 µM | GI50 ([4]; Glioma U373V (MGMT low), 7-day MTT, single determinations, read-out: GI50): 59.6 µM and 73.8 µM and 69.5 µM | GI50 [2, 6]: 66.7 µM | GI50 [2, 7]: 54 µM and 61.7 µM and 61.8 µM | GI50 [3, 8]: 49.6 µM | GI50 [3, 9]: 62.5 µM and 54.7 µM

C[S+]([O-])Cn1nnc2c(C(N)=O)ncn2c1=O (stereo not shown) [UU-003, 3-Methanesulfinylmethyl-4-oxo-3,4-dihydro-imidazo[5,1-d][1,2,3,5]tetrazine-8-carboxylic acid amide]
activity in words [1]: surprising efficacy | GI50 [5, 13]: 30.3 µM and 38.1 µM and 25.3 µM and 21.8 µM | GI50 [3, 12]: 4.6 µM and 8.6 µM and 7.6 µM and 8.2 µM

Cn1nnc2c(C(N)=O)ncn2c1=O [TMZ, 3-Methyl-4-oxo-3,4-dihydro-imidazo[5,1-d][1,2,3,5]tetrazine-8-carboxylic acid amide, reference compound]
GI50 ([1]; range of other cell lines (Table 1)): 200 to 700 µM | GI50 ([5]; Glioma SNB19V (MGMT−)): 35.7 µM | GI50 [5, 14]: 27.6 µM | GI50 ([5]; read-out: TMZ GI50 Average, Glioma SNB19V (MGMT−), average of Table 1): 35.7 µM | GI50 ([4]; Glioma U373V (MGMT low)): 68 µM | GI50 ([4]; read-out: TMZ GI50 Average, Glioma U373V (MGMT low), average of Table 1): 68 µM | GI50 [2, 15]: 464 µM | GI50 ([2]; Glioma SNB19M (MGMT+)): 470 µM | GI50 ([2]; read-out: TMZ GI50 Average, Glioma SNB19M (MGMT+), average of Table 1): 470 µM | GI50 ([3]; Glioma U373M (MGMT+)): 369 µM | GI50 ([3]; read-out: TMZ GI50 Average, Glioma U373M (MGMT+), average of Table 1): 369 µM
